From the METLIN SMRT retention time set (Domingo-Almenara et al. 2019)

Test: gradient 5% acetonitrile 3 min, to 50% in 2 min, to 85% in 15 min, held 3 min, 100 µL/min
Details: column: Zorbax Extend-C18 2.1 x 50 mm; eluents: water / acetonitrile, 0.1% formic acid
How it was run: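 Using water and acetonitrile that each contained 0.1% formic acid, mixtures of ~100 pure standards were separated at 100 μL/min on a Zorbax Extend-C18 column (2.1 × 50 mm, 1.8 μm). The HPLC fed a quadrupole time-of-flight mass spectrometer working in positive and negative ionization mode, with dead and dwell volumes of 40 μL and 900 μL. Data were acquired over 3 months. Retention time was read from computationally picked adduct peaks after manual inspection of each.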

Structure (SMILES)	RP-LC retention time [s]
O=C1/C(=C\c2cccs2)Oc2ccccc21	958
O=C(NC1CCCC1)c1nnn(-c2ccc(F)cc2)c1-c1ccncc1	788
O=C1COc2ccc(Cl)cc2N1Cc1nc(-c2ccc(N3CCOCC3)cc2)no1	1000
COc1cccc(OC)c1C(=O)Nc1ccc2c(c1)Sc1ncccc1C(=O)N2C(C)C	883
COC(=O)C1=CN(c2cccc(Cl)c2)c2ccc(F)cc2S1(=O)=O	895
CN(C)S(=O)(=O)c1ccc(C(=O)N2CCCC(c3nnc(-c4cccs4)o3)C2)cc1 (configuration not stated)	714
O=C(Cn1nc(N2CCCC2)c2ccccc2c1=O)Nc1ccc(F)c(Cl)c1	1000
COC(=O)C1=CN(c2cc(OC)ccc2OC)c2ccc(F)cc2S1(=O)=O	874
O=C(Cn1ccn(-c2ccc3c(c2)OCCO3)c(=O)c1=O)Nc1ccccc1F	655
CC(C)S(=O)(=O)c1cc2c(cc1NC(=O)c1c(F)cccc1F)n(C)c(=O)n2C	792
CCCN(CC(=O)N1CCc2sccc2C1COc1ccccc1OC)C(=O)COC (configuration not stated)	800
O=C(COc1ccccc1-c1nnc(-c2ccccc2)o1)Nc1ccc2c(c1)OCCO2	1160
O=C(Nc1c(-c2ccc(F)cc2)nc2ccccn12)c1cccc(C(F)(F)F)c1	748
COc1ncc(C(=O)Nc2cc(C)ccc2C)c(C)n1	748
CCNC(=O)N1CC=C(C(=O)Nc2cccc(F)c2)CC1	673
CCn1nccc1C(=O)NCC1Cn2cccc2C(=O)N1C (configuration not stated)	605
COc1ccc(N2CCN(C(=O)C3CC(=O)N(c4n[nH]c5cccc(F)c45)C3)CC2)cc1 (configuration not stated)	662
Cc1cc(C(=O)N2C[C@@H](F)C[C@H]2C(=O)N2CCc3ccccc3C2)n(C)n1	683
O=C(Nc1cccc(-c2cn3cccnc3n2)c1)c1ccc(Cl)cc1	739
CCCC(NC(=O)c1ccc(N(C)C)cc1)C(=O)Nc1nc2ccccc2[nH]1 (configuration not stated)	706
Cn1cc(C2=C(c3ccc(Cl)cc3Cl)C(=O)NC2=O)c2ccccc21	1110
Cc1nc(-c2nc(-c3cccs3)cs2)cn1CC(=O)Nc1cccc(F)c1	814

Structure (SMILES)	RP-LC retention time [s]
CC(=O)c1ccc(N2CCN(C(=O)CN3C(=O)C(C)(C)c4cc(C)ccc43)CC2)cc1	855
COc1ccc(-c2nnc(Cc3nc(C(C)C)no3)o2)cc1	858
Cc1ccc(NC(=O)N2CCC(N3CCN(Cc4ccc(F)cc4)C(=O)C3=O)CC2)c(C)c1	751
Cc1cc(S(=O)(=O)NCC2(C)CCOCC2)ccc1F	840
Cc1cc(NC(=O)C2CCN(C(=O)C3(c4cccs4)CCCC3)CC2)no1	800
COC(=O)C(C)NC(=O)NCc1cccn1Cc1ccccc1 (configuration not stated)	794
Cc1ccc(NS(=O)(=O)c2cc3n(c2)CCN(CC(C)C)C3=O)cc1C	846
CN1C(=O)c2cccnc2Sc2cc(NC(=O)Cc3cccc(Cl)c3)ccc21	831
CC(=O)O[C@@H]1CC[C@@]2(C)[C@H](C1)[C@H](OC(C)=O)C[C@@H]1[C@@H]2C[C@H]2[C@@H]3CN4C[C@H](C)CC[C@H]4[C@H](C)[C@H]3CC[C@@]12O	716
CCCn1cnnc1C1CCCCN1S(=O)(=O)c1cccc(C#N)c1 (configuration not stated)	748
O=C(O)c1cccc2c1CCN2C(=O)c1ccc(F)cc1	761
COc1ccc(CCN2C(=O)CC(Nc3ccc(N4CCOCC4)cc3)C2=O)cc1OC (configuration not stated)	583
COc1ccc(CNC(=O)Cn2c(=O)c3c(C(=O)N4CCCCC4)cc(C)nc3n(C)c2=O)cc1	761
COc1ccc(OC)c(S(=O)(=O)N2CCOCCNC(=O)[C@H]3CCCC[C@H]32)c1	772
CCc1nc2cc(N3CCCC(C(=O)NC4CCCC4)C3)cnc2nc1CC (configuration not stated)	785
CCn1c(SCC(=O)Nc2ccccc2C(F)(F)F)nc2c(c1=O)SC(C)C2 (configuration not stated)	854
COc1cccc(CNC2=NCCNC23CCN(S(=O)(=O)c2ccc(F)cc2)CC3)c1	695
Cc1cccc(CNC(=O)c2cn3cc(C)ccc3n2)c1	708
Cc1nc(-c2ccc(-n3cc(C(=O)Nc4ccc(Br)cc4F)c(C)n3)cc2)no1	962
COc1ccc(NC(=O)c2cn3c(n2)CCCC3)cc1	574
CCc1ccc(CNC(=O)C2CCCN(c3nc4c(s3)c(C)nn4-c3ccccc3)C2)cc1 (configuration not stated)	1230
COc1cc(-c2noc(CN3C(=O)C(C)Oc4ccccc43)n2)cc(OC)c1OC (configuration not stated)	980

Structure (SMILES)	RP-LC retention time [s]
Cc1ccc(CNS(=O)(=O)c2cc(-c3cc(C(F)(F)F)[nH]n3)sc2C)o1	964
COc1ccccc1NC(=O)C1c2cc(OC)c(OC)cc2C(=O)N2CCc3ccccc3C12 (configuration not stated)	862
Cc1c(C)n(-c2ccccc2)c2ncn(CC(=O)NCc3ccco3)c(=O)c12	809
Cc1ccc(N2C(=O)C3N=NN(c4ccccc4)C3C2=O)cc1C (configuration not stated)	1010
CCOC(=O)C1CCN(C(=O)c2ccc3c(c2)NC(=O)C2CCCCN32)CC1 (configuration not stated)	554
COc1cccc(S(=O)(=O)N2C[C@@H]3C[C@H](NC(=O)c4cccs4)[C@H]2C3)c1	854
CC1=C(c2ccc(C(C)C)cc2)S(=O)(=O)N=C1N1CCC(C(=O)NCCc2ccco2)CC1	947
COc1ccc(NC(=O)c2cn(C)nc2S(=O)(=O)N2CCSCC2)cc1	848
COc1ccc(CC(=O)Nc2ccc3c(c2)Sc2ncccc2C(=O)N3C(C)C)cc1	844
COc1ccc(CN2C[C@@H]3C(=O)N(Cc4ccc5c(c4)OCO5)C(=O)[C@@H]3C2)cc1	689
COc1ccc(CCNC(=O)CN2C(=O)c3cccc4cccc(c34)C2=O)cc1OC	725
CCOc1ccc(C2c3[nH]c4ccccc4c3CCN2C(=O)c2ccnn2C)cc1 (configuration not stated)	678
COc1ccc(Cl)cc1NC(=O)C1CCCN(c2nc3ccccc3nc2C(F)(F)F)C1 (configuration not stated)	693
CCn1c(CCC(=O)NCc2ccc(F)c(Cl)c2)nc2c(C)cccc2c1=O	916
CCn1nccc1C(=O)N1CCCC1c1ccccc1C (configuration not stated)	836
CN(CC1CCOC1)C(=O)c1ccc(F)cc1F (configuration not stated)	683
Cc1nnc2c(=O)n(CC(=O)NCc3ccccc3F)c3cccnc3n12	649
Cc1ccc2c(Nc3ccc(S(N)(=O)=O)cc3)c(C(=O)N3CCCCC3C)cnc2n1 (configuration not stated)	590
Cc1cccn2cc(-c3cccc(S(=O)(=O)N4CCOCC4)c3)nc12	604
O=C(c1ccc(Oc2ccccc2)cc1)N1CC(c2nc3ccccc3[nH]2)C1	623
COCC(=O)N1N=C(c2cccc(NS(C)(=O)=O)c2)CC1c1ccccc1F (configuration not stated)	718
CS(=O)(=O)N1CCN(C(=O)c2ccsc2)CC1	606

Structure (SMILES)	RP-LC retention time [s]
CCOC(=O)N1CCN(S(=O)(=O)c2cn(C)c(=O)n(C)c2=O)CC1	621
O=C(Nc1ccc2c(c1)OCO2)C1CC(=O)N(c2n[nH]c3cccc(F)c23)C1 (configuration not stated)	694
COc1cc(C2CC(=O)N(CC(=O)N3CCCC3)c3ccccc3S2)cc(OC)c1OC (configuration not stated)	792
COc1cc(OC)c(NC(=O)Cn2ncc3c(c2=O)N(C)C(=O)CS3)cc1Cl	695
O=C(C1CCN(c2ncnc3c2oc2ccccc23)CC1)N1CCC(Cc2ccccc2)CC1	995
Cc1ccc(CNC(=O)CC2CCOC3(CCN(S(C)(=O)=O)CC3)C2)o1 (configuration not stated)	705
O=C(NCc1ccc(F)cc1)N1CCc2nc(-c3ccccc3)ncc2C1	874
CCN1CCN(S(=O)(=O)c2ccc(Cl)c(-c3nnc(-c4ccccc4)o3)c2)CC1	702
CCOCCCNC(=O)C1CCN(C2=NS(=O)(=O)C(c3ccc(C)c(C)c3)=C2C)CC1	786
CSc1cccc(-n2ccc(=O)c(-c3nc(-c4ccccc4)no3)n2)c1	971
Cn1nnc2ccc(-c3noc(Cc4cccc(F)c4)n3)cc21	921
COc1ccc(-c2nnc(Cc3nc(-c4ccc(Cl)cc4)no3)o2)cc1	1070
COc1ccc(OC)c(-c2cn3ccn(-c4cc(C)cc(C)c4)c(=O)c3n2)c1	975
COc1ccc(C)cc1NC(=O)Nc1ccc2c(c1)CCN2S(=O)(=O)c1ccc(C)cc1	1100
Cc1nc(-c2csc(S(=O)(=O)N3CCCC(C(=O)Nc4ccc(F)cc4Cl)C3)c2)no1 (configuration not stated)	1010
CCN(CCNC(=O)CCc1cc2ccc(C)cc2[nH]c1=O)Cc1ccccc1	639
O=C1C2N=NN(Cc3nc(-c4ccc(Br)cc4)no3)C2C(=O)N1c1cccc(F)c1 (configuration not stated)	1080
Cc1cc(F)ccc1NC(=O)c1cc(C2CC2)on1	936
CCc1noc(NC(C)=O)c1-c1ccc(OC)c(S(=O)(=O)Nc2ccc(C(C)C)cc2)c1	891
O=C(O)C1CCN(c2nc3ccc(-c4ccncc4)nc3s2)CC1	588
Cn1nc(C(=O)N2C[C@@H]3C[C@H](NC(=O)c4cccnc4)[C@H]2C3)c2ccccc21	636
